Test results: PMC9656702, “Unveiling a New Selenocyanate as a Multitarget Candidate with Anticancer, Antileishmanial and Antibacterial Potential” (Molecules, 2022)
≈ marks a conversion by molar mass, not a printed value. Where two headings read alike, the source gives them in different places.

Columns and labels:
[1] = system: HCT-116; assay: Antiproliferative MTT assay, HCT-116 colon cancer cells; format: cell-based, human
Protocol: (§1) The antiproliferative activities of the cinnamyl and benzodioxyl derivatives were assessed against six human cell lines of three different types of cancer (colon, lung, and breast) using the 3-(4,5-dimethylthiazol-2-yl)-2,5-diphenyltetrazolium bromide (MTT) assay at seven concentrations for 48 h. The results are expressed as the IC50 values and are outlined in Table 1.
(§2) The cell lines were obtained from the American Type Culture Collection (ATCC). All the cancer cell lines (HT-29, HCT-116, H1299, HTB-54, MDA-MB-231 and MCF-7) and the nontumorigenic cells (184B5) were maintained in RPMI 1640 medium (Gibco), supplemented with 10% fetal bovine serum (FBS; Gibco) and 1% antibiotics (10.00 units/mL penicillin and 10.00 mg/mL streptomycin; Gibco). Cells were preserved in tissue culture flasks at 37 °C and 5% CO2. Culture medium was replaced every three days.
(§3) The cytotoxic effect of each compound was initially tested at seven different concentrations ranging between 0.5 and 100 µM in the cell lines mentioned above. The cells were seeded (1 × 10^4 cells per well) in 96-well plates and incubated at 37 °C and 5% CO2 for 24 h. After attachment, cells were treated with either dimethyl sulfoxide (DMSO) or increasing concentrations of the corresponding selenocompound for 48 h. The effect of the compounds on cell viability was determined by the MTT assay. In brief, 20 µL of MTT (5 mg/mL) was added to each well 2.5 h prior to experiment termination. At the end of the incubation, the medium was removed, and the formazan crystals were dissolved in 50 µL of DMSO. Absorbance was measured at 550 nm on a microplate reader. IC50 values were calculated using OriginPro 8.5.1. software by nonlinear curve fitting. Selectivity indexes were calculated as the ratio of the IC50 values determined for the nonmalignant and the tumoral cells in the breast cell lines (IC50 (184B5)/IC50 (MDA-MB-231) and IC50 (184B5)/IC50 (MCF-7)). Data were obtained from at least three independent experiments performed in triplicates.

[2] = system: MDA-MB-231; assay: Antiproliferative MTT assay, MDA-MB-231 breast cancer cells; format: cell-based, human
Protocol: as §1, §2, §3

[3] = system: MCF-7; assay: Antiproliferative MTT assay, MCF-7 breast cancer cells; format: cell-based, human
Protocol: as §1, §2, §3

[4] = system: 184B5; assay: MTT assay in nonmalignant mammary gland cells 184B5; format: cell-based; details: for IC50: read-out: IC50 184B5
Protocol: To assess their possible selectivity, the synthesized selenocompounds were then tested in a mammary gland (184B5) nonmalignant cell line, and the selectivity indexes (SI) were determined as the ratio of the IC50 values obtained for the nonmalignant cells and the homolog cancer cells.
as §2, §3

[5] = system: Leishmania major promastigotes; assay: Parasite viability MTT assay, L. major promastigotes; format: cell-based; details: 48 h
Protocol: The cytotoxic activities of all the derivatives against Leishmania major and Leishmania infantum promastigotes were studied by the MTT assay after exposing the parasites to five different concentrations of each compound for 48 h. Miltefosine and paromomycin, two currently available drugs for the treatment of leishmaniasis, were used as positive controls.
L. major (clone VI, MHOM/IL/80/Friendlin) and L. infantum (BCN-150) promastigotes were grown in continuous stirred M199 1X medium (Sigma, St Louis, MO, USA) at 26 °C supplemented with 25 mM HEPES (pH 7.2), 10% heat-inactivated FBS (Gibco, Gaithersburg, MD, USA), 0.1 mM adenine, 0.0005% (w/v) hemin, 0.0001% (w/v) biotin, 100 UI/mL penicillin and […] streptomycin (Gibco, Gaithersburg, MD, USA). Media were changed before each experiment to achieve exponential growth.
The antileishmanial activity was assessed by the MTT assay as previously described. Briefly, 3 × 10^6 promastigotes of both Leishmania strains were placed into a 96-well plate with supplemented M199 1X medium during their logarithmic growth phase. The parasites were treated with five increasing concentrations of the compounds ranging between 0.1 and 1000 µM at 26 °C for 48 h. At the termination point, 20 µL of MTT (5 mg/mL) was added and further incubated for 4 h. The resultant formazan crystals formed were dissolved in 80 µL of DMSO and the absorbance was measured at 550 nm on a microplate reader. IC50 values were calculated using OriginPro 8.5.1. software by nonlinear curve fitting. Miltefosine and paromomycin were used as reference drugs. Data were obtained from at least three independent experiments performed in triplicates.

[6] = system: E. coli; assay: MIC and MBC assay, E. coli; format: cell-based, Escherichia coli; details: Gram-negative; for MBC / MIC: Escherichia coli; for MIC / MIC E. coli: 24 h at 37 °C
Protocol: (§4) The minimum inhibitory concentration (MIC) and the minimum bactericidal concentration (MBC) values of the selenocompounds were determined in a panel of six bacterial strains as a first approach to assess their antibacterial activity. Thus, the synthesized derivatives were tested against the Gram-negative bacteria Escherichia coli (E. coli), Klebsiella pneumoniae (K. pneumoniae) and Citrobacter freundii (C. freundii); and the Gram-positive bacteria Staphylococcus aureus (S. aureus), Streptococcus faecalis (S. faecalis), and Staphylococcus epidermidis (S. epidermidis). […]
(§5) All the selenocompounds were screened for their in vitro inhibitory activity against three Gram-negative (E. coli, K. pneumoniae and C. freundii) and three Gram-positive (S. aureus, S. faecalis and S. epidermidis) bacteria. Bacterial strains were kindly provided by the Department of Microbiology and Parasitology of the University of Navarra. The bacterial cells were grown in tryptic soy agar (TSA) plates and maintained at 4 °C.
(§6) The compounds were firstly dissolved in DMSO and serially diluted in a 96-well plate in tryptic soy broth (TSB) with eleven concentrations ranging from 400 µg/mL to 0.4 µg/mL with a final volume of 100 µL. Subsequently, 100 µL of a diluted suspension of bacterial cells with an optical density of 0.125 measured at 600 nm in TSB (inoculum of approximately 10^5 CFU/mL) was added to each well and incubated at 37 °C for 24 h. After the incubation period, each well was analyzed for the presence or absence of visual growth of bacterial cells. The lowest concentration of the test compound at which no visible growth occurred was determined as the MIC values. After incubation, 10 µL of the bacterial suspension from each well that presented antibacterial activity was added to divided TSA plates and incubated at 37 °C overnight.

[7] = system: C. freundii; assay: MIC and MBC assay, C. freundii; format: cell-based, Citrobacter freundii; details: for MIC / MBC: Citrobacter freundii; for MIC: read-out: MIC C. freundii; for MBC: read-out: MBC C. freundii
Protocol: as §4, §5, §6

[8] = system: S. aureus; assay: MIC and MBC assay, S. aureus; format: cell-based, Staphylococcus aureus; details: Gram-positive; for MIC S. aureus / MIC: 24 h at 37 °C; for MBC / MIC: Staphylococcus aureus
Protocol: as §4, §5, §6

[9] = Homo sapiens, HCT-116, 48 h, MTT assay, 48 h, mean ± SD, read-out: IC50 HCT-116
[10] = Homo sapiens, MDA-MB-231, MTT assay, 48 h, mean ± SD, read-out: IC50 MDA-MB-231
[11] = Homo sapiens, MCF7, MTT assay, 48 h, mean ± SD, read-out: IC50 MCF-7
[12] = Homo sapiens, 184B5, 48 h, nontumorigenic cells, MTT assay, 48 h, mean ± SD
[13] = nontumorigenic cells, MTT assay, 48 h, mean ± SD
[14] = Leishmania major, promastigotes, MTT assay, mean ± SD, read-out: IC50 Leishmania major
[15] = promastigotes, MTT assay, mean ± SD, read-out: IC50 Leishmania major
[16] = MTT assay, 48 h, mean ± SD, read-out: IC50 HCT-116
[17] = MTT assay, 48 h, mean ± SD, read-out: IC50 MDA-MB-231
[18] = MTT assay, 48 h, mean ± SD, read-out: IC50 MCF-7

SMILES | IC50 [1, 9] | IC50 [2, 10] | IC50 [3, 11] | IC50 [4, 12] | IC50 [4, 13] | IC50 [5, 14] | IC50 [5, 15] | MBC [6] | MIC [6] | MIC ([7]; Gram-negative, 24 h at 37 °C) | MIC S. aureus [8] | MBC [8] | MIC [8] | IC50 [1, 16] | IC50 [2, 17] | IC50 [3, 18] | MIC E. coli [6] | MIC C. freundii ([7]; Gram-negative, 24 h at 37 °C) | further results
N#C[Se]Cc1ccc2c(c1)OCO2 [Compound 2a, 5-(Selenocyanatomethyl)benzo[d][1,3]dioxole] | 69.7 ± 5.3 µM | 43.8 ± 5.7 µM | 59.3 ± 6.5 µM | ~50 µM | 48.6 ± 2.1 µM | < 5 µM | 3.3 ± 0.9 µM | 50 mg/L (≈ 208 µM) | 50 mg/L (≈ 208 µM) | 100 mg/L (≈ 416 µM) | ≤ 25 mg/L | > 200 mg/L | 25 mg/L (≈ 104 µM) |  |  |  |  |  | MBC ([7]; Gram-negative): 100 mg/L (≈ 416 µM); MBC S. aureus [8]: could not be obtained
C(=C\c1ccccc1)/C[Se][Se]C/C=C/c1ccccc1 [Compound 1b, 1,2-Dicinnamyldiselenide] | < 40 µM | 56.3 ± 5.3 µM | > 100 µM | > 100 µM |  | 47.6 ± 16 µM |  |  | > 200 mg/L | > 200 mg/L |  |  | > 200 mg/L | 36.6 ± 6.7 µM |  |  |  |  | IC50 184B5 [4, 13]: not toxic
N#C[Se]C/C=C/c1ccccc1 [Compound 1a, (E)-(3-selenocyanatoprop-1-en-1-yl)benzene] |  |  |  |  |  |  |  | > 200 mg/L | 100 mg/L (≈ 450 µM) |  |  | 50 mg/L (≈ 225 µM) | 50 mg/L (≈ 225 µM) |  |  |  |  |  | IC50 ([1]; Homo sapiens, HCT-116, 48 h, read-out: IC50 HCT-116, MTT assay, 48 h, mean ± SD): > 50 µM; IC50 ([1]; read-out: IC50 HCT-116, MTT assay, 48 h, mean ± SD): 68.8 ± 6.3 µM; IC50 ([2]; Homo sapiens, MDA-MB-231, 48 h, read-out: IC50 MDA-MB-231, MTT assay, 48 h, mean ± SD): > 50 µM; IC50 ([2]; read-out: IC50 MDA-MB-231, MTT assay, 48 h, mean ± SD): 71 ± 10.3 µM; IC50 ([3]; Homo sapiens, MCF7, 48 h, read-out: IC50 MCF-7, MTT assay, 48 h, mean ± SD): > 50 µM; IC50 ([3]; read-out: IC50 MCF-7, MTT assay, 48 h, mean ± SD): 55 ± 2.3 µM; IC50 ([4]; Homo sapiens, 184B5, 48 h): 55 ± 6.7 µM; IC50 ([5]; Leishmania major, read-out: IC50 Leishmania major, promastigotes, MTT assay, 48 h, mean ± SD): < 5 µM; IC50 ([5]; read-out: IC50 Leishmania major, promastigotes, MTT assay, mean ± SD): 4.6 ± 1.7 µM; MIC ([7]; 24 h): 100 mg/L (≈ 450 µM); MBC [7]: 100 mg/L (≈ 450 µM)
O=C(CC[Se]CC=Cc1ccccc1)[c-]1cccc1.[Fe+2].c1cc[cH-]c1 [Compound 1c, 3-(Cinnamylselanyl)-1-ferrocenylpropan-1-one] |  |  |  |  | 24.6 ± 0.4 µM |  | 25.8 ± 2.7 µM |  |  |  | >200 mg/L |  |  | > 100 µM | 32.1 ± 3 µM | 18.5 ± 5.4 µM | >200 mg/L | >200 mg/L | 
O=C(CC[Se]Cc1ccc2c(c1)OCO2)[c-]1cccc1.[Fe+2].c1cc[cH-]c1 [Compound 2c, 3-((Benzo[d][1,3]dioxol-5-ylmethyl)selanyl)-1-ferrocenylpropan-1-one] |  |  |  |  | 50.1 ± 4.5 µM |  | 11.2 ± 3 µM |  |  |  | >200 mg/L |  |  | > 100 µM | 30.9 ± 1.3 µM | 14.8 ± 4.3 µM | >200 mg/L | >200 mg/L | 
